# US9539262B2, “Ophthalmic composition comprising a prostaglandin” (SUN PHARMA ADVANCED RESEARCH COMPANY, LTD., priority 2007, dated 2017)
# Tested on: New Zealand White Rabbits
# Assay: Ocular irritancy potential and systemic toxicity, daily repeated ocular instillation
# Format: in vivo
# Procedure: The pharmaceutical compositions of the present invention were tested in New Zealand White Rabbits, for ocular irritancy potential and systemic toxicity. The pharmaceutical composition of the present invention and polyethylene glycol hydroxystearate (the excipient) both were tested. The test involved daily repeated ocular instillation for at least 14 days.
compound,measurement,setting,value
"CC(C)OC(=O)CCC/C=C\C[C@@H]1[C@@H](CC[C@@H](O)CCc2ccccc2)[C@H](O)C[C@@H]1O [latanoprost, isopropyl-(Z)-7[(1R,2R,3R,5S)3,5-dihydroxy-2-[(3R)-3-hydroxy-5-phenylpentyl]cyclopentyl]-5-heptenoate]",gross or microscopical pathological lesion,at least 14 days ocular instillation,did not result into any gross or microscopical pathological lesion
same,"alterations in body weight, % body weight gain, terminal body weight, absolute and relative organ weights, differential cell count of bone marrow, biochemical and hematological parameters","at least 14 days ocular instillation, compared to the control group",no statistically significant alterations
same,clinical sign or irritation in the eyes,"daily repeated ocular instillation for at least 14 days, Solutol HS 15 approximately 47 times HRD, latanoprost approximately 48 times HRD",no clinical sign or irritation in the eyes
